From article PMC5150661 (Journal of Medicinal Chemistry, 2016)
Like-named read-outs stand apart in the source and are kept apart here. Marks after values point to notes of the source that are not given here.

Assays:
[1] = system: schistosomula or adult S. mansoni; details: concentrations up to 170 μM; cited from earlier work
[2] = system: AR; details: cited from earlier work
[3] = system: androgen-dependent cell line; details: cited from earlier work
[4] = system: S. mansoni; details: 1 × 100 mg/kg po, cited from earlier work
[5] = single 1250 mg/kg dose, mice; cited from earlier work
[6] = format: in vitro ADME; details: liver microsomes
[7] = cited from earlier work
[8] = target: T1, wild-type androgen receptor (AR) in LAPC4 cell line (Homo sapiens, UniProt P10275); format: cell-based
T1 sequence (P10275 1-920): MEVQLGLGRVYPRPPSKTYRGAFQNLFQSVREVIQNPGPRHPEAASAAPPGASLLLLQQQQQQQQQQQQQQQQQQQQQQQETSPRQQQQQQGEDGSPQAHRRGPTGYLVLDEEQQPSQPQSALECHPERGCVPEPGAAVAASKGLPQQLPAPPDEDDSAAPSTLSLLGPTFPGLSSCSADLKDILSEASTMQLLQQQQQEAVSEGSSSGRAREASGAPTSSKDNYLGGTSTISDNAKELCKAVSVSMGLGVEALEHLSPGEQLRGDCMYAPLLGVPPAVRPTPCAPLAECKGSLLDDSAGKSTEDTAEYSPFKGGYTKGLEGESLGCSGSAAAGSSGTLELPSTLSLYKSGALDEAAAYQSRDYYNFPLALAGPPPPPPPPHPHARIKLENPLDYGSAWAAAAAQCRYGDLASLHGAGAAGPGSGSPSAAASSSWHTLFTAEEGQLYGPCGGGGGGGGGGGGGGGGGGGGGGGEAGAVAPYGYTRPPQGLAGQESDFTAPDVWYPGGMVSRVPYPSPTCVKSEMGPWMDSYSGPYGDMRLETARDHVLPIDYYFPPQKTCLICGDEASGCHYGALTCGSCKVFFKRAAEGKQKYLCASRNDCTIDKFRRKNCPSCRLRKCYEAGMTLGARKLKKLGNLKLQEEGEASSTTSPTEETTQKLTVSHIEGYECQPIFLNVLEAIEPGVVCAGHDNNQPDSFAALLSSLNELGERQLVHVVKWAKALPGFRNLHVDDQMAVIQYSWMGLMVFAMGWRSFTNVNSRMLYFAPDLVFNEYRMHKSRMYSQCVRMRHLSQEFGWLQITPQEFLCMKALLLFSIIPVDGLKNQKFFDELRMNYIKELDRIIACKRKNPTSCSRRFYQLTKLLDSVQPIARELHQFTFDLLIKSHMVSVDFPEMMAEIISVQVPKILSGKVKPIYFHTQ

[9] = system: S. mansoni; test: S. mansoni in vivo study, worm burden reduction in infected NMRI mice; parameters: species or system Schistosoma mansoni in NMRI mice; details: for inhibition in vivo at 100 mg/kg: Schistosoma mansoni, in Mus musculus, po, 504 h, read-out: S. mansoni WBR
[10] = target: human albumin (Homo sapiens, UniProt P02768); test: in vitro; format: in vitro ADME; details: plasma, cPPB, estimated from retention on human albumin column
Chain of human albumin (P02768 25-609): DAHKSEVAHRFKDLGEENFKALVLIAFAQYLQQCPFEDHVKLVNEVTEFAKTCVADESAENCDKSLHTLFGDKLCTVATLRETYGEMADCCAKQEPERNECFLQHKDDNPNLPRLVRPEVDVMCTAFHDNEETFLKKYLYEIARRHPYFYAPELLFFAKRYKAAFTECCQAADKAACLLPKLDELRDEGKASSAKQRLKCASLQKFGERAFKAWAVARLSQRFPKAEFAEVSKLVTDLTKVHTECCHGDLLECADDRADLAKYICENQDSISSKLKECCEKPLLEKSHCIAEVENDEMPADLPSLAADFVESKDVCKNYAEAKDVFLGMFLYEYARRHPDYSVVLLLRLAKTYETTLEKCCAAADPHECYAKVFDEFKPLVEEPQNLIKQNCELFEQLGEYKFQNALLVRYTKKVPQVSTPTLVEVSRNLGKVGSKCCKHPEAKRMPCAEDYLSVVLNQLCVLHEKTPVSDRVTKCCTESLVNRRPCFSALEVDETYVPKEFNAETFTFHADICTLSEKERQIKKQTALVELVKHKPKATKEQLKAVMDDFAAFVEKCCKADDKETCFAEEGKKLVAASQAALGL

[11] = physchem; format: physicochemical; details: pH 7.4
[12] = in vitro; details: mouse, microsomes
[13] = Mouse exposure study after oral administration; format: in vivo, male Swiss outbred mice; details: male, Swiss outbred, mouse, plasma, po, 100 mg/kg
[14] = in vitro; details: human, microsomes
[15] = system: S. mansoni; details: cited from earlier work
[16] = 0.01 M HCl (approximately pH 2.0), 1% DMSO, nephelometry
[17] = pH 6.5 phosphate buffer, 1% DMSO, nephelometry

CC1(C)NC(=O)N(c2ccc(F)c(C(F)(F)F)c2)C1=O [Compd 1]
effect on adult S. mansoni in vitro [1]: almost no effect
interaction with the AR in a ligand competition assay [2]: no measurable interaction
DHT-induced cell proliferation [3]: did block
S. mansoni WBR ([4]; ref Keiser et al. 19, 100 mg/kg): 95 ^h %
toxicity after a single dose [5]: no apparent toxicity
metabolic stability (in words) [6]: high metabolic stabilities
Sol2.0 [16]: >100/>100 μg/mL
Sol6.5 [17]: >100/>100 μg/mL
pKa [7]: 12.1

CC1(C)C(=O)N(c2ccc(F)c(C(F)(F)F)c2)C(=O)N1CC(N)=O [Compd 4, 2-[3-[4-Fluoro-3-(trifluoromethyl)phenyl]-5,5-dimethyl-2,4-dioxoimidazolidin-1-yl]acetamide]
LAPC4 IC50 ([8]; DHT-induced luciferase reporter, 24 h): agonist
AR functional activity (in words) ([8]; LAPC4 reporter): weak AR agonist
Sol2.0 [16]: 50–100/50–100 μg/mL
Sol6.5 [17]: 50–100/50–100 μg/mL

CC1(C)NC(=O)N(c2ccnc(C(F)(F)F)c2)C1=O [Compd 16, 5,5-Dimethyl-3-[2-(trifluoromethyl)pyridin-4-yl]imidazolidine-2,4-dione]
cure of infected mice ([9]; 100 mg/kg): cure of all of the infected mice

CC1NC(=O)N(c2ccc(F)c(C(F)(F)F)c2)C1=O (stereo not drawn) [Compd 23, 3-[4-Fluoro-3-(trifluoromethyl)phenyl]-5-methylimidazolidine-2,4-dione]
fraction unbound [10]: 0.614
chromatographic logD [11]: 2.4
microsomal CLint [12]: 34 µL/min/mg
AUC(0-t) [13]: 163 µM·h
Cmax [13]: 26.6 µM
Tmax [13]: 1 h
microsomal CLint [14]: 17 µL/min/mg
inhibition in vivo at 100 mg/kg [9]: 66%
metabolic stability (in words) [6]: high metabolic stabilities
Sol2.0 [16]: >100/>100 μg/mL
Sol6.5 [17]: >100/>100 μg/mL

O=C1N[C@H](c2ccccc2)C(=O)N1c1ccc(F)c(C(F)(F)F)c1 [Compd 24, (R)-3-[4-Fluoro-3-(trifluoromethyl)phenyl]-5-phenylimidazolidine-2,4-dione]
chromatographic logD [11]: 3.5
microsomal CLint [12]: 181 µL/min/mg
microsomal CLint [14]: 22 µL/min/mg
IC50 [8]: 5.3 µM
inhibition in vivo at 100 mg/kg [9]: 41%
metabolic stability (in words) [6]: decreased the metabolic stabilities
Sol2.0 [16]: 6.3–12.5/6.3–12.5 μg/mL
Sol6.5 [17]: 6.3–12.5/6.3–12.5 μg/mL

CC1(C)NC(=O)N(c2ccc([N+](=O)[O-])c(C(F)(F)F)c2)C1=O [N, nilutamide]
antischistosomal activity in S. mansoni-infected mice [15]: weak, but measurable

O=C(C1CCCCC1)N1CC(=O)N2CCc3ccccc3C2C1 (stereo not drawn) [PZ, Praziquantel]
S. mansoni WBR ([4]; ref Keiser et al. 21): 18 ^i %
Sol2.0 (pH 2): >100/>100 μg/mL
Sol6.5 (pH 6.5): >100/>100 μg/mL
ED50 against adult S. mansoni ([15]; mouse model): 172 to 202 mg/kg
activity against juvenile stages of the parasite ([15]; mouse model): no significant activity
